Assay [1] has as its system p38 MAPK protein. The experiment in a line: Dephosphorylation of p38 MAPK protein in serum-deprived PC12 cells (Western blotting). Type of assay: cell-based, rat. Conditions: serum deprivation 6 hours, NGF 10 ng/ml or compounds 10 μm, 30 minutes, WB. As to the method:
PC12 cells were cultured in the absence of serum, exactly as described above in example 5, and treated for 30 minutes with NGF, at the final concentration of 10 ng/ml, or alternatively with the compounds of formula I, at the final concentration of 10 μm; the cells were subsequently lysed and analysed by WB, using antibodies specific for the phosphorylated form of the enzyme.
A homogeneity control of protein load on gel, normalisation with β-actin is reported. (FIG. 3).

The subject of assay [2] is Murine cardiomyocytes. The experiment in a line: Apoptosis induced by ROS after hypoxia/reperfusion, Annexin-V flow cytometry. The note with it: cells cultured in hypoxia, end of reperfusion period, vs controls. Type of assay: cell-based.
The target in assay [3] is T1, TrkA receptor (Rattus norvegicus, UniProt P35739).
T1 construct: Autophosphorylation of the TrkA receptor on PC12 cells when incubated with NGF or with a mimetic; endogenous in cells; host or cells: PC12 rat pheochromocytoma cells
T1 sequence (P35739 33-799): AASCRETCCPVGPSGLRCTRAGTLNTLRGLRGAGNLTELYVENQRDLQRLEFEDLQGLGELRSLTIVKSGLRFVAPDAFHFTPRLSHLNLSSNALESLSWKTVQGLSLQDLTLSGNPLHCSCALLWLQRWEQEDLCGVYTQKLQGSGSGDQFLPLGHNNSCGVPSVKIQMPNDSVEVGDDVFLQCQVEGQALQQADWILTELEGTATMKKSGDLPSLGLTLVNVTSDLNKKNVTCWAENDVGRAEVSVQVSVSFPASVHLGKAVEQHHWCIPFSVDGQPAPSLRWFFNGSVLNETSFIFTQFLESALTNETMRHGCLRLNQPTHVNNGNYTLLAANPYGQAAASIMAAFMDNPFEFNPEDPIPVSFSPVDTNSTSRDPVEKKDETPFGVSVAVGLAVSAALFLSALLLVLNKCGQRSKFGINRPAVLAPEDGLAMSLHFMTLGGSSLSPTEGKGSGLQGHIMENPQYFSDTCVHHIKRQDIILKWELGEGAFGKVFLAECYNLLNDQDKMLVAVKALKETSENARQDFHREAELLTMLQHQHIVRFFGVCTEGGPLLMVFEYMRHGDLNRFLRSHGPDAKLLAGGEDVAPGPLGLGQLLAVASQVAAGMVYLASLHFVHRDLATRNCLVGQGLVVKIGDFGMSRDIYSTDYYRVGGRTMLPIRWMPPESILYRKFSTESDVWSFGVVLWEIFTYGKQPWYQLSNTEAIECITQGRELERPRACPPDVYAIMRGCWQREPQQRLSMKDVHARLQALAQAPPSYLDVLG
The experiment in a line: Autophosphorylation of the TrkA receptor in PC12 cells (Western blotting). Format: cell-based. The note with it: serum-free 6 hours, NGF 10 ng/ml or compounds 10 μm, 20 minutes, WB, ratio to total TrkA. The procedure:
Cells of the continuous PC12 pheochromocytoma rat line were cultured at a concentration of 4×10^5/ml in RPMI 1640 medium, supplemented with 5% glutamine, antibiotics, and in the absence of serum, in 24-well plates for 6 hours. Subsequently, NGF at a final concentration of 10 ng/ml or alternatively the compounds of formula (I), at the final concentration of 10 μm, were added to these cultures. After 20 minutes, the cells were thus lysed in RIPA buffer (20 mM Tris-HCl, pH 7.5, 150 mM NaCl, 1 mM Na2 EDTA, 1 mM EGTA, 1% NP-40, 1% sodium deoxycholate, 25 mM sodium pyrophosphate, 1 mMβ-glycerophosphate, 1 mM Na3VO4, 1 μg/ml leupeptin) for biochemical analysis by means of Western blotting (WB) technique, using specific antibodies for the phosphorylated form of the tyrosines 490, 674/675 or 785.
The graphs show the phosphorylation values of the indicated tyrosines (Y490, Y674/675, Y785), expressed as the ratio of the intensities of the bands observed in WB, developed with the respective anti-phosphotyrosine antibodies, to the band relating to the total TrkA protein. It is clear that the mimetics very strongly induce the phosphorylation of Y490 and much less that of the other tyrosines.

For assay [4], the system named is MKP-1 protein. The experiment in a line: Induction of MKP-1 protein expression in PC12 cells (Western blotting). The note with it: serum-free, NGF 10 ng/ml or compounds 10 μm, 30 minutes, WB densitometry. Type of assay: cell-based, rat. As to the method:
PC12 cells were cultured in the absence of serum, exactly as described above in example 5, and then treated for 30 minutes with NGF, at the final concentration of 10 ng/ml, or alternatively with the compounds of formula (I), at the final concentration of 10 μm; subsequently, the cells were lysed, and analysed by WB, using antibodies specific for the MKP-1 protein.

Consider “NGF: recombinant human NGF, the native neurotrophin used as comparator at 10 ng/ml”, for which the “dephosphorylation of p38 MAPK” value in assay [1] was “marked dephosphorylation of p38 MAPK”. The “percentage of apoptotic cells (Annexin-V positive)” value in assay [2] is listed as “much lower percentage of apoptotic cells than the controls”. Moreover, the “phosphorylation of TrkA tyrosines 490, 674/675, 785” value in assay [3] was “invariably induced the phosphorylation of all tyrosines”. In addition, in assay [4], the “MKP-1 protein levels (ratio MKP1 band to β-actin)” value was “significantly higher than the control”.

These data come from patent US9932352B2, “Compounds for the treatment of ischemia-reperfusion-related diseases” (MINERVA PATENTS S.A., priority 2012, dated 2018).
